Results on 14 compounds are retold here after patent US20260103461A1, “ESTROGEN RECEPTOR MODULATORS AND USES THEREOF” (Olema Pharmaceuticals, Inc., priority 2022, published 2026).

The experiment has as its target T1, estrogen receptor (Homo sapiens, UniProt P03372).
T1 construct: endogenous in cells; host or cells: ECC-1 cells
T1 sequence (P03372 1-595): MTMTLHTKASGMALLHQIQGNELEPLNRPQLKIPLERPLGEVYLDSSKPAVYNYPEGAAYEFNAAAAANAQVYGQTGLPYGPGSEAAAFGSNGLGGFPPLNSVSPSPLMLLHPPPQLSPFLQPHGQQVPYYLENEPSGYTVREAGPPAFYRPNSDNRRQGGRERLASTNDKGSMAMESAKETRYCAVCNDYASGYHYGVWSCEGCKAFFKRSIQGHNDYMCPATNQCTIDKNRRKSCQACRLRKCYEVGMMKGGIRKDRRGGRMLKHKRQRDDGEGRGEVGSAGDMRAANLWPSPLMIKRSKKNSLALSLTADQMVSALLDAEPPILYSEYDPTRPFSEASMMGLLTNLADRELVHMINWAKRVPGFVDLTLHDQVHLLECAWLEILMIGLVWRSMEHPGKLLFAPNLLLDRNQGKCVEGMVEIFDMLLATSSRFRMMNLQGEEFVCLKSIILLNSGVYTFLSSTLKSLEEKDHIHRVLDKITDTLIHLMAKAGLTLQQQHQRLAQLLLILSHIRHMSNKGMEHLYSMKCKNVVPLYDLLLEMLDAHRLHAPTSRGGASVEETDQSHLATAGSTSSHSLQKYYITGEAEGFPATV
The experiment in a line: AP (alkaline phosphatase) assay in ECC-1 cells, agonist mode and antagonist mode. The format is cell-based. As to conditions: 3 days, absence of E2 (agonist mode) or 500 pM E2 (antagonist mode), AP activity normalized to 500 pM E2 alone. Here is the method: ECC-1 cells were trypsinized and resuspended in hormone-depleted media and plated at a density of 15 k cells per well into a 96-well plate for at least 4 hours. Cells were treated with test compounds in the absence of E2 (for agonist mode) or in the presence of 500 pM E2 (for antagonist mode) for 3 days and plates were subsequently frozen at −80° C. Thawed plates were incubated with a chromogenic substrate of AP, p-nitrophenyl phosphate (Thermo Fisher Scientific), for 40 minutes at 42° C., and absorbances were read at 405 nm. AP activity was normalized to the activity of 500 pM E2 alone.
The compound numbers correspond to the compound numbers of Table 1 and 2. Compounds having an activity designated as “+” provided estrogen receptor agonism having (i) at least 80% increase in the E2-normalized signal in the AP assay (agonist mode) and (ii) no more than 80% reduction in the E2-normalized signal in the AP assay (antagonist mode). Compounds having an activity designated as “++” provided estrogen receptor antagonism having (i) between 10% and 80% increase in the E2-normalized signal in the AP assay (agonist mode) and (ii) between 10% and 80% reduction in the E2-normalized signal in the AP assay (antagonist mode).
As for `C[C@@H]1Cc2c([nH]c3ccccc23)[C@@H](c2cnc(OC3CN(CCCF)C3)s2)N1CC(F)(F)CO` [Example I-31, 2,2-difluoro-3-[(1S,3R)-1-[2-[1-(3-fluoropropyl)azetidin-3-yl]oxythiazol-5-yl]-3-methyl-1,3,4,9-tetrahydropyrido[3,4-b]indol-2-yl]propan-1-ol], the “Activity (estrogen receptor modulation, agonism and antagonism)” value (from here on “Activity”) was “++ (estrogen receptor antagonism having (i) between 10% and 80% increase in the E2-normalized signal in the AP assay (agonist mode) and (ii) between 10% and 80% reduction in the E2-normalized signal in the AP assay (antagonist mode))”.

Take `C[C@@H]1Cc2c([nH]c3ccccc23)[C@@H](c2cnc(O[C@@H]3C[C@H](C)N(CCCF)C3)s2)N1CC(F)(F)CO` [Example I-29, 2,2-difluoro-3-((1S,3R)-1-(2-(((3R,5S)-1-(3-fluoropropyl)-5-methylpyrrolidin-3-yl)oxy)thiazol-5-yl)-3-methyl-1,3,4,9-tetrahydro-2H-pyrido[3,4-b]indol-2-yl)propan-1-ol]: the “Activity” value was “+ (estrogen receptor agonism having (i) at least 80% increase in the E2-normalized signal in the AP assay (agonist mode) and (ii) no more than 80% reduction in the E2-normalized signal in the AP assay (antagonist mode))”. Take `C[C@@H]1C[C@@H](Oc2ncc([C@@H]3c4[nH]c5ccccc5c4C[C@@H](C)N3CC(F)(F)CO)s2)CN1CCCF` [Example I-30, 2,2-difluoro-3-[(1S,3R)-1-[2-[(3R,5R)-1-(3-fluoropropyl)-5-methyl-pyrrolidin-3-yl]oxythiazol-5-yl]-3-methyl-1,3,4,9-tetrahydropyrido[3,4-b]indol-2-yl]propan-1-ol]: the “Activity” value is “+ (estrogen receptor agonism having (i) at least 80% increase in the E2-normalized signal in the AP assay (agonist mode) and (ii) no more than 80% reduction in the E2-normalized signal in the AP assay (antagonist mode))”.

As to `C[C@@H]1Cc2c([nH]c3ccccc23)[C@@H](c2cnc(O[C@@H]3CCN(CCCF)[C@H]3C)s2)N1CC(F)(F)CO` [Example I-34, 2,2-difluoro-3-[(1S,3R)-1-[2-[(2S,3R)-1-(3-fluoropropyl)-2-methyl-pyrrolidin-3-yl]oxythiazol-5-yl]-3-methyl-1,3,4,9-tetrahydropyrido[3,4-b]indol-2-yl]propan-1-ol], the “Activity” value is “+ (estrogen receptor agonism having (i) at least 80% increase in the E2-normalized signal in the AP assay (agonist mode) and (ii) no more than 80% reduction in the E2-normalized signal in the AP assay (antagonist mode))”. For `C[C@@H]1Cc2c([nH]c3ccccc23)[C@@H](c2ccc(O[C@@H]3CCN(CCC(F)F)C3)s2)N1CC(C)(C)F` [Example I-15, (1S,3R)-1-[5-[(3R)-1-(3,3-difluoropropyl)pyrrolidin-3-yl]oxy-2-thienyl]-2-(2-fluoro-2-methyl-propyl)-3-methyl-1,3,4,9-tetrahydropyrido[3,4-b]indole] the value was “+ (estrogen receptor agonism having (i) at least 80% increase in the E2-normalized signal in the AP assay (agonist mode) and (ii) no more than 80% reduction in the E2-normalized signal in the AP assay (antagonist mode))”; for `C[C@@H]1Cc2c([nH]c3ccccc23)[C@@H](c2cnc(O[C@H]3CN(CCCF)C[C@@H]3F)s2)N1CC(F)(F)CO` [Example I-32, 2,2-difluoro-3-[(1S,3R)-1-[2-[(3S,4S)-4-fluoro-1-(3-fluoropropyl)pyrrolidin-3-yl]oxythiazol-5-yl]-3-methyl-1,3,4,9-tetrahydropyrido[3,4-b]indol-2-yl]propan-1-ol], “+ (estrogen receptor agonism having (i) at least 80% increase in the E2-normalized signal in the AP assay (agonist mode) and (ii) no more than 80% reduction in the E2-normalized signal in the AP assay (antagonist mode))”; for `CCCN1CC(Oc2ccc([C@@H]3c4[nH]c5ccccc5c4C[C@@H](C)N3CC(C)(C)F)s2)C1` [Example I-1, 3-({5-[(1S,3R)-2-(2-fluoro-2-methylpropyl)-3-methyl-1H,2H,3H,4H,9H-pyrido[3,4-b]indol-1-yl]thiophen-2-yl}oxy)-1-propylazetidine], “++ (estrogen receptor antagonism having (i) between 10% and 80% increase in the E2-normalized signal in the AP assay (agonist mode) and (ii) between 10% and 80% reduction in the E2-normalized signal in the AP assay (antagonist mode))”.

In the case of `C[C@@H]1Cc2c([nH]c3ccccc23)[C@@H](c2cnc(O[C@@H]3CCN(CCCF)C3)s2)N1CC(F)(F)CO` [Example I-28, 2,2-difluoro-3-[(1S,3R)-1-[2-[(3R)-1-(3-fluoropropyl)pyrrolidin-3-yl]oxythiazol-5-yl]-3-methyl-1,3,4,9-tetrahydropyrido[3,4-b]indol-2-yl]propan-1-ol], the “Activity” value is “+++ (estrogen receptor antagonism (i) with pIC50 greater than 7.5 and at least a 10% reduction in the E2-normalized signal in the AP assay (antagonist mode); and no more than 10% increase in E2-normalized signal in the AP assay (agonist mode))”. For `C[C@@H]1Cc2c([nH]c3ccccc23)[C@@H](c2ccc(O[C@@H]3CCN(CCF)C3)s2)N1CC(C)(C)F` [Example I-17, (1S,3R)-1-[5-[(3R)-1-(2-fluoroethyl)pyrrolidin-3-yl]oxy-2-thienyl]-2-(2-fluoro-2-methyl-propyl)-3-methyl-1,3,4,9-tetrahydropyrido[3,4-b]indole] the value was “+ (estrogen receptor agonism having (i) at least 80% increase in the E2-normalized signal in the AP assay (agonist mode) and (ii) no more than 80% reduction in the E2-normalized signal in the AP assay (antagonist mode))”; for `CCCN1CC[C@@H](Oc2ccc([C@@H]3c4[nH]c5ccccc5c4C[C@@H](C)N3CC(C)(C)F)s2)C1` [Example I-10, (1S,3R)-2-(2-fluoro-2-methyl-propyl)-3-methyl-1-[5-[(3R)-1-propylpyrrolidin-3-yl]oxy-2-thienyl]-1,3,4,9-tetrahydropyrido[3,4-b]indole], “+ (estrogen receptor agonism having (i) at least 80% increase in the E2-normalized signal in the AP assay (agonist mode) and (ii) no more than 80% reduction in the E2-normalized signal in the AP assay (antagonist mode))”; for `CCCN1CC(Oc2ncc([C@@H]3c4[nH]c5ccccc5c4C[C@@H](C)N3CC(C)(C)F)s2)C1` [Example I-3, 5-[(1S,3R)-2-(2-fluoro-2-methylpropyl)-3-methyl-1H,2H,3H,4H,9H-pyrido[3,4-b]indol-1-yl]-2-[(1-propylazetidin-3-yl)oxy]-1,3-thiazole], “++ (estrogen receptor antagonism having (i) between 10% and 80% increase in the E2-normalized signal in the AP assay (agonist mode) and (ii) between 10% and 80% reduction in the E2-normalized signal in the AP assay (antagonist mode))”. For `C[C@@H]1Cc2c([nH]c3ccccc23)[C@@H](c2ccc(OC3CN(CCCF)C3)s2)N1CC(F)(F)CO` [Example I-12, 2,2-difluoro-3-[(1S,3R)-1-[5-[1-(3-fluoropropyl)azetidin-3-yl]oxy-2-thienyl]-3-methyl-1,3,4,9-tetrahydropyrido[3,4-b]indol-2-yl]propan-1-ol] the value was “+++ (estrogen receptor antagonism (i) with pIC50 greater than 7.5 and at least a 10% reduction in the E2-normalized signal in the AP assay (antagonist mode); and no more than 10% increase in E2-normalized signal in the AP assay (agonist mode))”; for `C[C@@H]1Cc2c([nH]c3ccccc23)[C@@H](c2ncc(OC3CN(CCCF)C3)s2)N1CC(C)(C)F` [Example I-9, 2-[(1S,3R)-2-(2-fluoro-2-methyl-propyl)-3-methyl-1,3,4,9-tetrahydropyrido[3,4-b]indol-1-yl]-5-[1-(3-fluoropropyl)azetidin-3-yl]oxy-thiazole], “++ (estrogen receptor antagonism having (i) between 10% and 80% increase in the E2-normalized signal in the AP assay (agonist mode) and (ii) between 10% and 80% reduction in the E2-normalized signal in the AP assay (antagonist mode))”. For `C[C@@H]1Cc2c([nH]c3ccccc23)[C@@H](c2ccc(O[C@H]3CCN(CCC(F)F)C3)s2)N1CC(C)(C)F` [Example I-8, (1S,3R)-1-(5-(((S)-1-(3,3-difluoropropyl)pyrrolidin-3-yl)oxy)thiophen-2-yl)-2-(2-fluoro-2-methylpropyl)-3-methyl-2,3,4,9-tetrahydro-1H-pyrido[3,4-b]indole] the value was “++ (estrogen receptor antagonism having (i) between 10% and 80% increase in the E2-normalized signal in the AP assay (agonist mode) and (ii) between 10% and 80% reduction in the E2-normalized signal in the AP assay (antagonist mode))”.
